Like-named read-outs stand apart in the source and are kept apart here.
Tested on: HIV-1 (H9/IIB strain)
Test: Multiple Round HIV-1 Infection Assay (Viking Assay) in MT4-GFP cells
Assay type: cell-based
Conditions: inhibition of reproductive ratio R0
Experimental: Assessing antiviral potency in a Multiple Round HIV-1 Infection Assay (Viking Assay) The antiviral activity of the tenofovir prodrugs of the Examples herein was assessed in an assay that measures the rate of replication of HIV in cell culture, termed the Viking assay (VIral KINetics in Green cells) and performed as follows. HIV-1 replication was monitored using MT4-gag-GFP clone D3 (hereafter designated MT4-GFP), which are MT-4 cells modified to harbor a GFP reporter gene, the expression of which is dependent on the HIV-1 expressed proteins tat and rev. Productive infection of an MT4-GFP cell with HIV-1 results in GFP expression approximately 24 h post-infection. MT4-GFP cells were maintained at 37° C./5% CO2/90% relative humidity in RPMI 1640 supplemented with 10/o fetal bovine serum, 100 U/ml penicillin/streptomycin, and 400 μg/ml G418 to maintain the reporter gene. For infections, MT4-GFP cells were placed in the same medium lacking G418 and infected overnight with HIV-1 (H9/IIB strain) virus at an approximate multiplicity of infection of 0.01 in the same incubation conditions. Cells were then washed and re-suspended in either RPMI 1640 supplemented with 10% or 50% normal human serum (NHS) at 1.6×10^5 cells/mL (10% NHS or 50% NHS, respectively). Compound plates were prepared by dispensing compounds dissolved in DMSO into wells of 384 well poly-D-lysine-coated plates (0.2 μl/well) using an ECHO acoustic dispenser. Each compound was tested in a 10-point serial 3-fold dilution (typical final concentrations: 8.4 μM-0.42 nM). Controls included no inhibitor (DMSO only) and a combination of three antiviral agents (efavirenz, indinavir, an in-house integrase strand transfer inhibitor at final concentrations of 4 μM each). Cells were added (50 μL/well) to compound plates and the infected cells were maintained at 37° C./5% CO2/90% relative humidity.
Infected cells were quantified at two time points, ˜48 h and ˜72 h post-infection, by counting the number of green cells in each well using an Acumen eX3 scanner. The increase in the number of green cells over ˜24 h period gives the reproductive ratio, R0, which is typically 5-15 and has been shown experimentally to be in logarithmic phase (data not shown). Inhibition of R0 is calculated for each well, and IC50s determined by non-linear 4-parameter curve fitting.

[1] = MT4-GFP cells infected with HIV-1, 10% normal human serum, read-out: Viking, IC50 (10% NHS)
[2] = MT4-GFP cells infected with HIV-1, 50% normal human serum, read-out: Viking, IC50 (50% NHS)

CCCOC(=O)C(C)(C)N[P@@](=O)(CO[C@H](C)Cn1cnc2c(N)ncnc21)NCc1ccc(OC(F)(F)F)cc1 [Example 7B, propyl 2-(((R)-((((R)-1-(6-amino-9H-purin-9-yl)propan-2-yl)oxy)methyl)((4-(trifluoromethoxy)benzyl)amino)phos-phoryl)amino)-2-methylpropanoate and propyl 2-(((S)-((((R)-1-(6-amino-9H-purin-9-yl)propan-2-yl)oxy)methyl)((4-(trifluoromethoxy)benzyl)amino)phos-phoryl)amino)-2-methylpropanoate]
IC50 [1]: 45 nM | IC50 [2]: 300 nM

isopropyl 2-(((R)-((((R)-1-(6-amino-9H- purin-9-yl)propan-2-yl)oxy)methyl)((2-(4- chlorophenyl)propan-2- yl)amino)phosphoryl)amino)-2- methylpropanoate and isopropyl 2-(((S)-((((R)-1-(6-amino-9H- purin-9-yl)propan-2-yl)oxy)methyl)((2-(4- chlorophenyl)propan-2- yl)amino)phosphoroyl)amino)-2- methylpropanoate [Example 36B]
IC50 [1]: 200 nM | IC50 [2]: 1100 nM

CCCOC(=O)C(C)(C)N[P@@](=O)(CO[C@H](C)Cn1cnc2c(N)ncnc21)N[C@@H](C)c1cccc(F)c1 [Example 10A, propyl 2-(((R)-((((R)-1-(6-amino-9H-purin-9-yl)propan-2-yl)oxy)methyl)(((S)-1-(3-fluorophenyl)ethyl)amino)phosphoryl)ami-no)-2-methylpropanoate and propyl 2-(((S)-((((R)-1-(6-amino-9H-purin-9-yl)propan-2-yl)oxy)methyl)(((S)-1-(3-fluorophenyl)ethyl)amino)phosphoryl)ami-no)-2-methylpropanoate]
IC50 [1]: 68 nM | IC50 [2]: 560 nM

CCCOC(=O)C(C)(C)N[P@@](=O)(CO[C@H](C)Cn1cnc2c(N)ncnc21)N[C@H](c1cccc(F)c1)C(F)(F)F [Example 22B, propyl 2-(((R)-((((R)-1-(6-amino-9H-purin-9-yl)propan-2-yl)oxy)methyl)(((R)-2,2,2-trifluoro-1-(3-fluorophenyl)ethyl)amino)phosphoryl)ami-no)-2-methylpropanoate and propyl 2-(((S)-((((R)-1-(6-amino-9H-purin-9-yl)propan-2-yl)oxy)methyl)(((R)-2,2,2-trifluoro-1-(3-fluorophenyl)ethyl)amino)phosphoryl)ami-no)-2-methylpropanoate]
IC50 [1]: 42 nM | IC50 [2]: 330 nM

CC(C)OC(=O)C(C)(C)N[P@@](=O)(CO[C@H](C)Cn1cnc2c(N)ncnc21)NC1(c2ccc(Cl)cc2)CC1 [Example 37A, isopropyl 2-(((R)-((((R)-1-(6-amino-9H-purin-9-yl)propan-2-yl)oxy)methyl)((1-(4-chlorophenyl)cyclopropyl)amino)phos-phoryl)amino)-2-methylpropanoate and isopropyl 2-(((S)-((((R)-1-(6-amino-9H-purin-9-yl)propan-2-yl)oxy)methyl)((1-(4-chlorophenyl)cyclopropyl)amino)phos-phoryl)amino)-2-methylpropanoate]
IC50 [1]: 110 nM | IC50 [2]: 720 nM

propyl 2-(((R)-((((R)-1-(6-amino-9H-purin- 9-yl)propan-2-yl)oxy)methyl)(((S)-1-(p- tolyl)ethyl)amino)phosphoryl)amino)-2- methylpropanoate and propyl 2-(((S)-((((R)-1-(6-amino-9H-purin- 9-yl)propan-2-yl)oxy)methyl)(((S)-1-(p- tolyl)ethyl)amino)phosphoryl)amino)-2- methylpropanoate [Example 18A]
IC50 [1]: 13 nM | IC50 [2]: 140 nM

CCCOC(=O)C(C)(C)N[P@@](=O)(CO[C@H](C)Cn1cnc2c(N)ncnc21)N[C@@H](C)c1ccc(OC)cc1 [Example 14B, propyl 2-(((R)-((((R)-1-(6-amino-9H-purin-9-yl)propan-2-yl)oxy)methyl)(((S)-1-(4-methoxyphenyl)ethyl)amino)phosphoryl)a-mino)-2-methylpropanoate and propyl 2-(((S)-((((R)-1-(6-amino-9H-purin-9-yl)propan-2-yl)oxy)methyl)(((S)-1-(4-methoxyphenyl)ethyl)amino)phosphoryl)a-mino)-2-methylpropanoate]
IC50 [1]: 52 nM | IC50 [2]: 280 nM

CCCOC(=O)C(C)(C)NP(=O)(CO[C@H](C)Cn1cnc2c(N)ncnc21)N[C@@H](C)c1ccc(Cl)cc1C (stereo partly drawn) [Example 30A, propyl 2-(((R)-((((R)-1-(6-amino-9H-purin-9-yl)propan-2-yl)oxy)methyl)(((S)-1-(4-chloro-2-methylphenyl)ethyl)amino)phosphoryl)ami-no)-2-methylpropanoate and propyl 2-(((S)-((((R)-1-(6-amino-9H-purin-9-yl)propan-2-yl)oxy)methyl)(((S)-1-(4-chloro-2-methylphenyl)ethyl)amino)phosphoryl)ami-no)-2-methylpropanoate]
IC50 [1]: 24 nM | IC50 [2]: 350 nM

CCCOC(=O)C(C)(C)NP(=O)(CO[C@H](C)Cn1cnc2c(N)ncnc21)N(C)Cc1ccc(C(C)C)cc1 (stereo partly drawn) [Example 32A, propyl 2-(((R)-((((R)-1-(6-amino-9H-purin-9-yl)propan-2-yl)oxy)methyl)((4-isopropylbenzyl)(methyl)amino)phos-phoryl)amino)-2-methylpropanoate and propyl 2-(((S)-((((R)-1-(6-amino-9H-purin-9-yl)propan-2-yl)oxy)methyl)((4-isopropylbenzyl)(methyl)amino)phos-phoryl)amino)-2-methylpropanoate]
IC50 [1]: 1.7 nM | IC50 [2]: 6.7 nM

CCCOC(=O)C(C)(C)N[P@@](=O)(CO[C@H](C)Cn1cnc2c(N)ncnc21)N[C@H](c1cccc(F)c1)C(F)(F)F [Example 22A, propyl 2-(((R)-((((R)-1-(6-amino-9H-purin-9-yl)propan-2-yl)oxy)methyl)(((R)-2,2,2-trifluoro-1-(3-fluorophenyl)ethyl)amino)phosphoryl)ami-no)-2-methylpropanoate and propyl 2-(((S)-((((R)-1-(6-amino-9H-purin-9-yl)propan-2-yl)oxy)methyl)(((R)-2,2,2-trifluoro-1-(3-fluorophenyl)ethyl)amino)phosphoryl)ami-no)-2-methylpropanoate]
IC50 [1]: 8.1 nM | IC50 [2]: 74 nM

CCCOC(=O)C(C)(C)N[P@@](=O)(CO[C@H](C)Cn1cnc2c(N)ncnc21)N[C@H](c1ccc(OC(F)(F)F)cc1)C(F)(F)F (single isomer, unassigned) [Example 27B]
IC50 [1]: 52 nM | IC50 [2]: 250 nM

CCCOC(=O)C(C)(C)N[P@@](=O)(CO[C@H](C)Cn1cnc2c(N)ncnc21)N[C@@H](c1cccc(OC)c1)C(F)(F)F [Example 28A, propyl 2-(((R)-((((R)-1-(6-amino-9H-purin-9-yl)propan-2-yl)oxy)methyl)(((S)-2,2,2-trifluoro-1-(3-methoxyphenyl)ethyl)amino)phosphoryl)a-mino)-2-methylpropanoate and propyl 2-(((S)-((((R)-1-(6-amino-9H-purin-9-yl)propan-2-yl)oxy)methyl)(((S)-2,2,2-trifluoro-1-(3-methoxyphenyl)ethyl)amino)phosphoryl)a-mino)-2-methylpropanoate]
IC50 [1]: 29 nM | IC50 [2]: 330 nM

Reference: patent US11123355B2, “Antiviral benzyl-amine phosphodiamide compounds” (Merck Sharp & Dohme Corp., priority 2016, dated 2021)
